# Reference: publication PMC4965013, “Open Source Drug Discovery with the Malaria Box Compound Collection for Neglected Diseases and Beyond” (PLoS Pathogens, 2016)
# Where two headings read alike, the source gives them in different places.
# How the values were obtained:
# [1] = test system: P. falciparum 3D7 trophozoites; experiment: Metabolomic fingerprint profiling LC-MS; type: cell-based, Plasmodium falciparum; design: UDP-D-glucose / ADP-D-glucose: unit not given here; conditions: for Acetyllysine / N-acetyl-L-ornithine / N-carbamoyl-L-aspartate / NADPH / dAMP / dCMP / dTDP / dTMP / dTTP / dihydroorotate / orotate / DLH / DLS/SDL/SID / PD / PEE / PVNF / 3-phosphoglycerate / ADP-D-glucose / ATP / CDP / D-sedoheptulose-1/7-phosphate / FAD / GMP / NAD+ / NADP+ / Octoluse Bisphosphate / Pyroglutamic acid / UDP-D-glucose / UDP-D-glucuronate / UDP-N-acetyl-glucosamine / UDP / UMP / UTP / a-ketoglutarate / citrate/isocitrate / cytidine / dATP / dGMP/AMP / fumarate / glucose-1/6-phosphate / glycerate / guanine / guanosine / hypoxanthine / indole / inosine / nicotinate / ornithine / phosphoenolpyruvate / pyruvate / ribose-phosphate / sarcosine/alanine / sn-glycerol-3-phosphate / succinate/methylmalonic acid / uridine / xanthosine: S2 Table Metabolomics; for Acetyllysine: metabolite Acetyllysine; for N-acetyl-L-ornithine: metabolite N-acetyl-L-ornithine; for N-carbamoyl-L-aspartate: metabolite N-carbamoyl-L-aspartate; for NADPH: metabolite NADPH; for dAMP: metabolite dAMP; for dCMP: metabolite dCMP; for dTDP: metabolite dTDP; for dTMP: metabolite dTMP; for dTTP: metabolite dTTP; for dihydroorotate: metabolite dihydroorotate; for orotate: metabolite orotate; for DLH: peptide DLH; for DLS/SDL/SID: peptide DLS/SDL/SID; for PD: peptide PD; for PEE: peptide PEE; for PVNF: peptide PVNF; for 3-phosphoglycerate: metabolite 3-phosphoglycerate; for ADP-D-glucose: metabolite ADP-D-glucose; for ATP: metabolite ATP; for CDP: metabolite CDP; for CDP / D-sedoheptulose-1/7-phosphate / GMP / Octoluse Bisphosphate / UDP / UMP / UTP / citrate/isocitrate / dGMP/AMP / fumarate / glucose-1/6-phosphate / glycerate / guanine / guanosine / inosine / pyruvate / sarcosine/alanine / succinate/methylmalonic acid / uridine / xanthosine: change in metabolite level after compound treatment; for D-sedoheptulose-1/7-phosphate: metabolite D-sedoheptulose-1/7-phosphate; for FAD: metabolite FAD; for GMP: metabolite GMP; for NAD+: metabolite NAD+; for NADP+: metabolite NADP+; for Octoluse Bisphosphate: metabolite Octoluse Bisphosphate; for Pyroglutamic acid: metabolite Pyroglutamic acid; for UDP-D-glucose: metabolite UDP-D-glucose; for UDP-D-glucuronate: metabolite UDP-D-glucuronate; for UDP-N-acetyl-glucosamine: metabolite UDP-N-acetyl-glucosamine; for UDP: metabolite UDP; for UMP: metabolite UMP; for UTP: metabolite UTP; for a-ketoglutarate: metabolite a-ketoglutarate; for citrate/isocitrate: metabolite citrate/isocitrate; for cytidine: metabolite cytidine; for dATP: metabolite dATP; for dGMP/AMP: metabolite dGMP/AMP; for fumarate: metabolite fumarate; for glucose-1/6-phosphate: metabolite glucose-1/6-phosphate; for glycerate: metabolite glycerate; for guanine: metabolite guanine; for guanosine: metabolite guanosine; for hypoxanthine: metabolite hypoxanthine; for indole: metabolite indole; for inosine: metabolite inosine; for 2_3-Diphosphoglyceric acid / 4-phosphopantothenate / 6-phospho-D-gluconate / FMN / IMP / Pyrophosphate / Sedoheptoluse bisphosphate / cyclic-AMP / glutathione disulfide / lactate / myo-inositol: metabolite level change after treatment; for nicotinate: metabolite nicotinate; for ornithine: metabolite ornithine; for phosphoenolpyruvate: metabolite phosphoenolpyruvate; for pyruvate: metabolite pyruvate; for ribose-phosphate: metabolite ribose-phosphate; for sarcosine/alanine: metabolite sarcosine/alanine; for sn-glycerol-3-phosphate: metabolite sn-glycerol-3-phosphate; for succinate/methylmalonic acid: metabolite succinate/methylmalonic acid; for uridine: metabolite uridine; for xanthosine: metabolite xanthosine
# P. falciparum = experiment: EC50 listed in S2 Table Metabolomics (used to set the concentration tested); type: cell-based; conditions: Plasmodium falciparum; EC50 used for Factor_XEC50 in metabolomics; read-out: EC50_nM
# P. falciparum 3D7 = experiment: [3H]-hypoxanthine growth inhibition, modified HCO3- or O2; type: cell-based; conditions: for IC50: Plasmodium falciparum
compound,measurement,setting,value
Oc1ccccc1CNCC12CC3CC(CC(C3)C1)C2 [MMV020788],Acetyllysine,[1],-2.885
same,N-acetyl-L-ornithine,[1],-2.954
same,N-carbamoyl-L-aspartate,[1],-1.526
same,NADPH,[1],0.03625
same,dAMP,[1],0.309
same,dCMP,[1],-0.3685
same,dTDP,[1],-0.06212
same,dTMP,[1],-0.1581
same,dTTP,[1],-0.254
same,dihydroorotate,[1],-1.002
same,orotate,[1],-1.435
same,DLH,[1],-2.982
same,DLS/SDL/SID,[1],-2.352
same,PD,[1],-3.15
same,PEE,[1],-2.856
same,PVNF,[1],-2.845
same,3-phosphoglycerate,[1],0.739
same,ADP-D-glucose,[1],-0.1615
same,ATP,[1],-0.008574
same,CDP,[1],0.1968
same,D-sedoheptulose-1/7-phosphate,[1],-0.6783
same,FAD,[1],-0.02526
same,GMP,[1],-0.06975
same,NAD+,[1],-0.1588
same,NADP+,[1],-0.008021
same,Octoluse Bisphosphate,[1],-0.4633
same,Pyroglutamic acid,[1],-0.07383
same,UDP-D-glucose,[1],0.01367
same,UDP-D-glucuronate,[1],-0.09612
same,UDP-N-acetyl-glucosamine,[1],-0.01836
same,UDP,[1],-0.3321
same,UMP,[1],-0.241
same,UTP,[1],-0.2582
same,a-ketoglutarate,[1],-0.5092
same,citrate/isocitrate,[1],-0.2786
same,cytidine,[1],0.02539
same,dATP,[1],-0.1887
same,dGMP/AMP,[1],0.3187
same,fumarate,[1],-0.7339
same,glucose-1/6-phosphate,[1],-0.008522
same,glycerate,[1],-0.4973
same,guanine,[1],-0.3533
same,guanosine,[1],-0.149
same,hypoxanthine,[1],-0.5956
same,indole,[1],-0.4443
same,inosine,[1],-0.3499
same,2_3-Diphosphoglyceric acid,[1],0.3339
same,4-phosphopantothenate,[1],-0.308
same,6-phospho-D-gluconate,[1],0.001521
same,FMN,[1],-0.2331
same,IMP,[1],-0.5843
same,Pyrophosphate,[1],0.1188
same,Sedoheptoluse bisphosphate,[1],-0.1032
same,cyclic-AMP,[1],-0.6828
same,glutathione disulfide,[1],-0.3605
same,lactate,[1],-0.4043
same,myo-inositol,[1],-0.5298
same,nicotinate,[1],-0.1476
same,ornithine,[1],-0.2765
same,phosphoenolpyruvate,[1],0.5824
same,pyruvate,[1],0.6752
same,ribose-phosphate,[1],0.658
same,sarcosine/alanine,[1],-1.087
same,sn-glycerol-3-phosphate,[1],0.6534
same,succinate/methylmalonic acid,[1],0.06183
same,uridine,[1],-0.2427
same,xanthosine,[1],-0.4659
same,EC50,P. falciparum,22.6 nM
same,fold change (IC50normal/ IC50hypoxia),P. falciparum 3D7,2.2
same,IC50,"P. falciparum 3D7; 3D7, read-out: P. falciparum 3D7 IC50 1% O2, 1% O2 hypoxia",63 nM
same,IC50,"P. falciparum 3D7; 3D7, read-out: P. falciparum 3D7 IC50 5% O2",136 nM
O=C(NCC(c1ccsc1)N1CCCCCC1)c1ccc(C(F)(F)F)cc1 (stereo not shown) [MMV396672],Acetyllysine,[1],-0.3412
same,N-acetyl-L-ornithine,[1],0.04406
same,N-carbamoyl-L-aspartate,[1],1.501
same,NADPH,[1],1.59
same,dAMP,[1],-0.1547
same,dCMP,[1],-0.6707
same,dTDP,[1],-0.2295
same,dTMP,[1],-0.1132
same,dTTP,[1],-0.02683
same,dihydroorotate,[1],1.3113
same,orotate,[1],-0.2374
same,DLH,[1],0.2454
same,DLS/SDL/SID,[1],0.4945
same,PD,[1],-0.2062
same,PEE,[1],0.3834
same,PVNF,[1],0.4792
same,3-phosphoglycerate,[1],0.01662
same,ADP-D-glucose,[1],0.1495
same,ATP,[1],0.06805
same,CDP,[1],-0.3083
same,D-sedoheptulose-1/7-phosphate,[1],-0.1874
same,FAD,[1],0.01705
same,GMP,[1],-0.121
same,NAD+,[1],-0.07697
same,NADP+,[1],0.1144
same,Octoluse Bisphosphate,[1],-0.0874
same,Pyroglutamic acid,[1],-0.2718
same,UDP-D-glucose,[1],0.05361
same,UDP-D-glucuronate,[1],0.1556
same,UDP-N-acetyl-glucosamine,[1],-0.04862
same,UDP,[1],-0.327
same,UMP,[1],-1.306
same,UTP,[1],-0.1422
same,a-ketoglutarate,[1],-0.6396
same,citrate/isocitrate,[1],-0.6773
same,cytidine,[1],0.6424
same,dATP,[1],0.05116
same,dGMP/AMP,[1],-0.08656
same,fumarate,[1],-0.2118
same,glucose-1/6-phosphate,[1],0.01846
same,glycerate,[1],-1.2197
same,guanine,[1],-0.7457
same,guanosine,[1],-1.987
same,hypoxanthine,[1],0.2737
same,indole,[1],0.1693
same,inosine,[1],-0.393
same,2_3-Diphosphoglyceric acid,[1],-0.1323
same,4-phosphopantothenate,[1],-0.391
same,6-phospho-D-gluconate,[1],-0.02288
same,FMN,[1],0.06346
same,IMP,[1],-0.1805
same,Pyrophosphate,[1],-0.05249
same,Sedoheptoluse bisphosphate,[1],-0.2083
same,cyclic-AMP,[1],-0.07949
same,glutathione disulfide,[1],-0.4263
same,lactate,[1],-0.6757
same,myo-inositol,[1],-1.04
same,nicotinate,[1],-1.005
same,ornithine,[1],0.1454
same,phosphoenolpyruvate,[1],-0.3004
same,pyruvate,[1],-1.162
same,ribose-phosphate,[1],0.03374
same,sarcosine/alanine,[1],-0.5204
same,sn-glycerol-3-phosphate,[1],-0.07409
same,succinate/methylmalonic acid,[1],-0.4318
same,uridine,[1],-0.8839
same,xanthosine,[1],-0.8196
same,EC50,P. falciparum,433 nM
same,fold change (IC50reduced/IC50normal),P. falciparum 3D7,2.6
same,IC50,"P. falciparum 3D7; 3D7, read-out: P. falciparum 3D7 IC50 HCO3- (2g/L), standard media",425 nM
same,IC50,"P. falciparum 3D7; 3D7, HCO3- reduced media, read-out: P. falciparum 3D7 IC50 HCO3- reduced",1120 nM
